{
  "source": "patent US7572831B2",
  "about": "“Composition containing chalcone” (Angiolab, Inc., priority 2002, dated 2009)",
  "key": {"[1]": {"molecular_target": "T1, MMP-1 (Homo sapiens, UniProt P03956)", "T1 construct": "made in house; host or cells: Sf21 insect cells, baculovirus (pBlueBac4.5)", "T1 sequence (P03956 100-469)": "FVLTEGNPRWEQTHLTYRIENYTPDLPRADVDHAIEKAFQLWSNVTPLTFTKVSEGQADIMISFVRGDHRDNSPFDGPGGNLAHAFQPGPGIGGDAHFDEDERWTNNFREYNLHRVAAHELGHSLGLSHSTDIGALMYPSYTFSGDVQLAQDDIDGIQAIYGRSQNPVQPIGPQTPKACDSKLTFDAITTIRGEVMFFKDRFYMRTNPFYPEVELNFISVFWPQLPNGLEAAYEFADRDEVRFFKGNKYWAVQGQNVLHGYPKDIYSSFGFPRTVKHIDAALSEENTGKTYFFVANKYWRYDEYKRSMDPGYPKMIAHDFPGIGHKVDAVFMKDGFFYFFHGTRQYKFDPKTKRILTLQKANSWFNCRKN", "assay": "MMP-1 spectrofluorometric enzyme activity assay", "format": "biochemical", "conditions": "50 μM compound; read-out: MMP-1 activity inhibited", "description": "MMP-1, MMP-2, MMP-9 and MMP-13 were cloned and prepared from insect cells (Sf21 insect cell) by using a Baculovirus system.\nEach cDNA for corresponding MMPs was cloned to a pBlueBac4.5 transfer vector (Invitrogen, Cat no. V1995-20), and then transfected to Sf21 cells with a Bac-N-Blue Transfection Kit (Invitrogen, Cat no. K855-01). Sf21 cells were incubated with a TNM-FH (Sigma, St. Louis, Mo., U.S.A) media containing 10% fetal bovine serum at 27° C., then harvested and re-suspended at a concentration of 10^7 cell/Ml. The cell suspension was incubated with a virus containing the cloned gene for 1 hr at room temperature. Infected Sf21 cells were grown for 72 hrs and the medium was recovered, and the MMP was purified. MMP-2 (GENEBANK No. XM—048244) and MMP-9 (GENEBANK No. XM—009491) were recovered from a gelatin-sepharose affinity column (Sigma, G5384) by eluting with 5% DMSO-containing buffer. […]\nAs a control, 2 Ml of reaction buffer (50 mM Tricine, pH 7.5, 10 mM CaCl2, 200 mM NaCl) comprising DMSO, 10 nM of enzyme and 10 μM of substrate was prepared in a cuvette. Fluorescence intensity was measured for 5-10 min at room temperature with a spectrofluorometer.\n50 μM Chalcone or its derivatives were added to a reaction buffer containing a substrate and enzyme, and fluorescence intensity was measured in the same manner."}, "[2]": {"system": "TPA-induced ear edema", "assay": "TPA-induced ear edema model", "format": "in vivo, ICR mouse", "description": "To observe the anti-inflammatory effects of chalcone or its derivatives edema was induced in the ear by topical application of 10 ul of TPA (Tetradecanoylphorbol acetate) in acetone (2.5 ug/ear) to both the inner and outer surface of one ear of each 6-week-old ICR mouse. 5% of Chalcone or its derivatives diluted with acetone were applied separately to each ear topically immediately after TPA. The reference drug, indomethacin (0.5 mg/ear), was administered as a positive control. Ear thickness was measured before and 4 hours after treatment with the irritant using a micrometer (Mitutoyo Co.). Ear thickness was expressed as the mean of the difference between thickness before and after challenge. Inhibition ratio percentage of edema was expressed as the reduction in thickness with respect to the control treated only with TPA. As shown in FIG. 6 and Table 2, chalcone or its derivatives suppressed the TPA-induced ear edema."}, "[3]": {"system": "human umbilical vein endothelial cells (HUVECs)", "assay": "Tube formation of HUVEC on Matrigel", "format": "cell-based", "conditions": "50 μM, 8-16 hrs", "description": "The effect of chalcone or its derivatives on human endothelial cells was investigated to evaluate the biological effect of chalcones as MMP inhibitors. Since MMPs are responsible for the degradation of extracellular matrix, chalcone or its derivatives can inhibit the formation of tubular network of vessel, which represent migration and differentiation of endothelial cell. Blood vessel endothelial cells, human umbilical vein endothelial cells (HUVECs), were isolated from freshly obtained cords after cesarean section according to Grants' method (Grants D. S., et al., Cell, 58, pp933-943, 1989). They were identified by immunocytochemical staining with anti-Factor VIII antibody. HUVECs cultured on Matrigel (BD Bioscience, Bedford, Mass., USA) were treated with 50 μM of chalcone or its derivatives, and further incubated at 37° C. for 8-16 hrs. As a control, the procedure was repeated with the solvent of the above compounds."}, "[4]": {"assay": "Skin sensitization by human patch test", "format": "in vivo", "conditions": "interpretation of skin average reactivity", "description": "The effect of chalcone on skin sensitization was studied by general method of skin patch test. The skin patch test was done against human subjects of ten adults. Test patch (2 cm×2 cm) included 0.2 ml of cream containing 0.01%-1.0% chalcone. The patches were applied to the backs of subjects. The patch was removed after 48 hours or 96 hours, and the skin responses of subjects were recorded and evaluated as shown in Table 4. The skin average reactivity calculated by equation 1 was interpreted as the degree of skin sensitivity in Table 5. According to the skin patch test, chalcone was nonreactive to skin sensitization (Table 6)."}},
  "data": [
    {"smiles": "O=C(/C=C/c1ccccc1)c1ccccc1", "note": "[Chalcone]", "values": [
      {"measurement": "inhibition at 50 µM", "setting": "[1]", "value": "~75", "unit": "%"},
      {"measurement": "Inhibition ratio (%) of ear edema", "setting": "[2]; topical 5% in acetone (indomethacin 0.5 mg/ear), 4 hours after TPA", "value": 69.3, "unit": "%"},
      {"measurement": "Δ Ear thickness (um ± S.D)", "setting": "[2]; topical 5% in acetone (indomethacin 0.5 mg/ear), 4 hours after TPA, TPA control 176 ± 35", "value": "54 ± 22", "unit": "um"},
      {"measurement": "Relative potency among chalcone or its derivatives on ear edema", "setting": "[2]; topical 5%, TPA-induced ear edema", "value": "greatest potency"},
      {"measurement": "Tubular (microvascular) network formation of HUVEC", "setting": "[3]", "value": "microvascular network was disconnected"},
      {"measurement": "Result of skin patch test (degree of skin sensitivity)", "setting": "[4]", "value": "nonreactive (0.0-0.9)"}
    ]}
  ]
}
